Among the data in PubChem BioAssay (NCI) are TGI and GI50 values, retold here.

Test in all cases: inhibition of tumour cell growth, NCI panel, 48 h
In assay [1] the test system is SK-MEL-2 melanoma.
Assay [2] relates to RPMI-8226 leukemia.
The test system of assay [3] is MDA-N.
In assay [4] the test system is RXF 393 renal.
Assay [5] deals with MDA-MB-231 breast.
Assay [6] has as its system MDA-MB-435.
Assay [7] has as its system COLO 205 colon.
Assay [8] deals with 786-0 renal.
Assay [9] has as its system NCI/ADR-RES ovarian.
Assay [10] concerns PC-3 prostate.
For assay [11], the system named is KM20L2 colon.
Assay [12] has as its system DMS 114 small cell lung.
Assay [13] has as its system M19-MEL melanoma.

Molecules are shown by their SMILES. Where “and” joins values, the source holds several entries; their conditions need not be identical. Equal entries are not always repeated.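 Results reflect a 48-hour exposure of cells in 96-well plates to compound at five concentrations. GI50 = concentration required for 50% inhibition of growth. TGI: concentration producing complete growth inhibition.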

Consider `CN(C)c1ccc(/C=C2/SC(=S)NC2=O)cc1`, for which the TGI in [1], in assay [2], in [3], in assay [4], in assay [5] and in [6] was more than 100 µM in each case. Further, the TGI in assay [7], in assay [8], in assay [9] and in assay [10] was more than 100 µM each time.
As for `CC1=C(C)C(=O)O[C@@H]([C@](C)(O)[C@]2(O)CC[C@@]3(O)[C@@H]4C[C@H]5O[C@]56[C@@H](O)C=CC(=O)[C@]6(C)[C@H]4CC[C@]23C)C1`, the GI50 is 0.385 µM in [1]; 0.335 µM and 0.125 µM in assay [11]; 0.21 µM and 0.0646 µM in assay [4]; 0.0847 µM and 0.0461 µM in assay [7]; 9.65 µM and 6.24 µM in assay [9]. Further, the TGI is 1.65 µM and 2.56 µM in [1]; 4 µM and 1.35 µM in assay [11]; 0.575 µM and 0.516 µM in assay [4]; 0.436 µM and 0.255 µM in assay [7]; 0.588 µM and 0.567 µM in [12]; 131 µM and 57.5 µM in assay [9].
Regarding `CC(C)(C)NCc1cc(Nc2ccnc3cc(Cl)ccc23)cc(-c2ccc(Cl)cc2)c1O`, the TGI came to 4.02 µM in assay [1]; 4.12 µM in assay [2]; 3.19 µM in [3]; 4.66 µM in [4]; 11.7 µM in assay [5]; 3.64 µM in assay [6]. The TGI in [7] came to 3.35 µM; in [8], 3.98 µM; in [9] it was 14.4 µM; in assay [10], 8.22 µM.
For the molecule `O=c1[nH]c(Nc2ccc(F)c(Cl)c2)nc2nc[nH]c12`, the TGI in assay [1], in assay [2], in assay [3], in [5], in assay [6] and in assay [7] was more than 100 µM throughout. Also, the TGI in [8], in [9] and in [10] was more than 100 µM each time.
On to `CC1C(=O)OC2CC[N+]3(CC(=O)c4ccc(Br)cc4)CC=C(COC(=O)C(C)(O)C1(C)O)C23` (stereo unspecified), for which the TGI in [1] is more than 375 µM; in assay [2], more than 375 µM; in [13], more than 375 µM; in assay [11], more than 266 µM; in [4], more than 375 µM; in assay [7] it was more than 375 µM. For the same molecule, the TGI in assay [12] and in assay [9] was more than 375 µM in each case.
Turning to `COCO[C@@H]1C[C@H]2C(O)Nc3ccccc3C(=O)N2C1` (stereo partly specified), the TGI in assay [1], in assay [2], in assay [3], in [4], in assay [5] and in [6] was more than 100 µM in each case. The TGI in assay [7], in assay [9] and in assay [10] was more than 100 µM each time.
`COC(=O)CCC(=O)CC(=O)C1=NS(=O)(=O)c2nc(S(N)(=O)=O)c(Cl)cc2N1`: the TGI in assay [1], in [2], in assay [13], in assay [11], in assay [4] and in assay [7] was more than 100 µM in each case. The molecule also returned a TGI in assay [12] of more than 100 µM.
For `O=C(O)CCCCCCC[C@@H]1S[C@H]1CCCCCCO`, the TGI in assay [1], in assay [2], in assay [13], in [11], in assay [4] and in assay [7] was more than 100 µM throughout. The TGI in assay [12] and in assay [9] was more than 100 µM each time.
Take `C[n+]1c2ccccc2c(CNc2ccc(S(=O)(=O)N=C(N)N)cc2)c2ccccc21`: the TGI came out at 59.5 µM in [1]; 23.5 µM in assay [2]; 42 µM in [13]; 59.6 µM in [11]; 34.1 µM in assay [4]; 43.4 µM in assay [8]. Moreover, the TGI in assay [12] worked out at 20.8 µM.
In the case of `N#C[S-].[Nd+3].c1cnc2c(c1)ccc1cccnc12.c1cnc2c(c1)ccc1cccnc12.c1cnc2c(c1)ccc1cccnc12`, the TGI in assay [2] is more than 100 µM; in assay [13] it was 3.63 µM; in [11], 15.3 µM; in assay [7], 15.6 µM; in [8] it was 11.8 µM; in assay [12], 4.67 µM. The GI50 in assay [13] is 0.566 µM; in assay [11] it was 1.11 µM; in assay [12] it was 1.59 µM.
As for `CCSc1nc(N)c2c(-c3ccc(OC)c(OC)c3)c3c(nc2n1)CCCC3`, the TGI in assay [2], in [3], in assay [4], in assay [5], in [6] and in assay [7] was more than 100 µM throughout. Moreover, the TGI in [9] and in assay [10] was more than 100 µM in each case.
Regarding `Cc1cc(NC(=S)Nc2ccccc2)c(NC(=S)Nc2ccccc2)cc1C`, the TGI in assay [1] was more than 31.6 µM; in assay [2], 40.4 µM; in assay [13], more than 100 µM; in [11], more than 92 µM; in [4] it was more than 80.8 µM; in assay [7], more than 74.3 µM. The TGI in assay [9] is 28.9 µM.
As for `CC(C)=CC1C(COC(=O)c2cc3c(cc2Cl)OCO3)C1(C)C` (stereo unspecified), the TGI in [1] was 40.6 µM; in assay [3] it was more than 100 µM; in assay [4], 48.9 µM; in [5] it was more than 100 µM; in assay [6], more than 100 µM; in assay [8], more than 100 µM. Further, the TGI in assay [9] and in assay [10] was more than 100 µM throughout.
